The record followed here is publication PMC11265914, “Unravelling nicotinic receptor and ligand features underlying neonicotinoid knockdown actions on the malaria vector mosquito Anopheles gambiae” (Open Biology, 2024).

The target of this experiment is T1, Ls-AChBP (Lymnaea stagnalis, UniProt P58154, Q74R).
T1 construct: over-expressed in Pichia pastoris, deglycosylated, purified; homo-pentamer
Nature of the experiment: X-ray crystal structure of the complex. To be noted: cocrystallized with 1 mM dinotefuran, PEG4000, 0.2 M sodium citrate pH 5.4, 20 °C; all five orthosteric sites. It counts as binding.

In the case of `CNC(=N[N+](=O)[O-])NC[C@@H]1CCOC1` [dinotefuran], the “X-ray crystal structure of the complex” value is on record as “Dinotefuran bound to all five orthosteric sites of the protein”.
